Laboratory results reported in patent US20040014790A1, “Tartrate salt of thiazolidinedione derivative” (priority 2000, published 2004).

Assay: Solid state stability of the drug substance (HPLC assay for final content and degradation products)
Type: physicochemical
Settings: 1 month, product of Example 1
Description: The solid state stability of the drug substance was determined by storing approximately 1.0 g of the material in a glass bottle at i) 40° C./75% Relative Humidity (RH), open exposure, for 1 month and b) at 50° C., closed, for 1 month. The material was assayed by HPLC for final content and degradation products in both cases.

[1] = 40° C./75% Relative Humidity (RH), open exposure

**Q.** Which “Solid state stability: HPLC assay” value [1] does the source give for `CN(CCOc1ccc(CC2SC(=O)NC2=O)cc1)c1ccccn1.O=C(O)C(O)C(O)C(=O)O` (racemic) [DL-Tartrate, 5-[4-[2-(N-methyl-N-(2-pyridyl)amino)ethoxy]benzyl]thiazolidine-2,4-dione DL tartrate] here?
**A.** 97 % initial

**Q.** And the “Solid state stability: degradation observed” value [1]?
**A.** No significant degradation observed

**Q.** And the “Solid state stability: HPLC assay” value (50° C., closed)?
**A.** 99 % initial

**Q.** And the “Solid state stability: degradation observed” value (50° C., closed)?
**A.** No significant degradation observed
